In the assay the target is T1, MAGL (Homo sapiens, UniProt Q99685).
T1 sequence (Q99685 1-303): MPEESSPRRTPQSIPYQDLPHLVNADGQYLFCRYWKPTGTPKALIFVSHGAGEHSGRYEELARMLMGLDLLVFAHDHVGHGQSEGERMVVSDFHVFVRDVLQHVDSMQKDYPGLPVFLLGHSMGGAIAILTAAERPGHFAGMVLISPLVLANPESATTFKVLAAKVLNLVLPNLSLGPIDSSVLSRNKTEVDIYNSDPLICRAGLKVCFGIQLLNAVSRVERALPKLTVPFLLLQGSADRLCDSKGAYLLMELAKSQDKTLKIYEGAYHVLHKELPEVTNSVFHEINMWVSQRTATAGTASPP
Briefly: 2-AG assay: MAGL inhibitory activity by hydrolysis of 2-arachidonoylglycerol to arachidonic acid, mass spectrometry. The note with it: 2-AG assay (values marked [b]). Type of assay: biochemical. Summed up:
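Hydrolysis of 8 μM 2-arachidonoylglycerol by […] was run for 30 min at RT after a 15 min compound preincubation, in Tris/EDTA/Tween buffer. Test compounds spanned […]. The product was measured by online SPE-MS/MS (transitions 303.1→259.1 and 311.1→267.0), and activity was derived from the arachidonic acid/d8-arachidonic acid signal ratio.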

SMILES strings stand for the structures. Some results are limits rather than exact numbers.

For `Cc1ccc2oc(N3CCN(C(=O)c4cnc(OCC5(C(F)(F)F)CC5)c(F)c4)CC3)nc2n1` [Example 150, (5-fluoro-6-((1-(trifluoromethyl)cyclopropyl)methoxy)pyridin-3-yl)(4-(5-methyloxazolo[4,5-b]pyridin-2-yl)piperazin-1-yl)methanone], the IC50 stood at 46 nM. This lies in the double-digit nanomolar range.

With `COc1cc(C(=O)N2CCN(c3nc4nc(Cl)ccc4o3)CC2)ccc1-c1ncn(C(C)(C)C)n1` [Example 124, (4-(1-(tert-butyl)-1H-1,2,4-triazol-3-yl)-3-methoxyphenyl)(4-(5-chlorooxazolo[4,5-b]pyridin-2-yl)piperazin-1-yl)methanone], the IC50 was determined as 81 nM. Next, `O=C(NC1CN(C(=O)N2CCN(c3nc4nc(Cl)ccc4o3)CC2)C1)c1ccc(F)cc1Cl` [Example 253, 2-chloro-N-[1-[4-(5-chloro-[1,3]oxazolo[4,5-b]pyridin-2-yl)piperazine-1-carbonyl]azetidin-3-yl]-4-fluorobenzamide]: no less than 12500 nM.

Take `Cc1ccc2oc(N3CCN(C(=O)c4ccc(-c5cnn(CC(C)(C)C)n5)c(F)c4)CC3)nc2n1` [Example 85, (3-fluoro-4-(2-neopentyl-2H-1,2,3-triazol-4-yl)phenyl)(4-(5-methyloxazolo[4,5-b]pyridin-2-yl)piperazin-1-yl)methanone]: inhibition was half-maximal at 5 nM (IC50). This counts as single-digit nanomolar. Next, `Cc1ccc2oc(N3CCN(C(=O)c4cc(O)c(-c5nnc(C(C)(C)C)o5)c(F)c4)CC3)nc2n1` [Example 118, (4-(5-(tert-butyl)-1,3,4-oxadiazol-2-yl)-3-fluoro-5-hydroxyphenyl)(4-(5-methyloxazolo[4,5-b]pyridin-2-yl)piperazin-1-yl)methanone]: 368 nM; `COc1cc(C(=O)N2CCN(c3nc4nc(Cl)ccc4o3)CC2)cnc1-c1nnn(CC(C)(C)C)n1` [Example 311, [4-(5-chlorooxazolo[4,5-b]pyridin-2-yl)piperazin-1-yl]-[6-[2-(2,2-dimethylpropyl)tetrazol-5-yl]-5-methoxy-3-pyridyl]methanone]: 61 nM; `CC(C)(CF)n1cc(-c2ccc(C(=O)N3CCN(c4nc5nc(Cl)ccc5o4)CC3)cc2)nn1` [Example 134, (4-(5-chlorooxazolo[4,5-b]pyridin-2-yl)piperazin-1-yl)(4-(1-(1-fluoro-2-methylpropan-2-yl)-1H-1,2,3-triazol-4-yl)phenyl)methanone]: 48 nM. Next, `Cc1ccc2oc(N3CCN(C(=O)c4ccc(-c5cn(C6(C)COC6)nn5)cc4)CC3)nc2n1` [Example 109, [4-(5-methyl-[1,3]oxazolo[4,5-b]pyridin-2-yl)piperazin-1-yl]-[4-[1-(3-methyloxetan-3-yl)triazol-4-yl]phenyl]methanone]: 2520 nM. As for `COCC1(COc2ncc(C(=O)N3CCN(c4nc5nc(Cl)ccc5o4)CC3)cc2C)CC1` [Example 160, (4-(5-chlorooxazolo[4,5-b]pyridin-2-yl)piperazin-1-yl)(6-((1-(methoxymethyl)cyclopropyl)methoxy)-5-methylpyridin-3-yl)methanone], the half-inhibitory concentration (IC50) worked out at 295 nM. This IC50 lies about 8.5-fold lower than the previous one. In turn, `CCC1(COc2ncc(C(=O)N3CCN(c4nc5nc(Cl)ccc5o4)CC3)cc2C)COC1` [Example 159, (4-(5-chlorooxazolo[4,5-b]pyridin-2-yl)piperazin-1-yl)(6-((3-ethyloxetan-3-yl)methoxy)-5-methylpyridin-3-yl)methanone] gave an IC50 of 117 nM. As for `Cc1cc(C(=O)N2CCN(c3nc4nc(Cl)ccc4o3)CC2)ccc1-c1nnn(CC(C)(C)C)n1` [Example 302, [4-(5-chlorooxazolo[4,5-b]pyridin-2-yl)piperazin-1-yl]-[4-[2-(2,2-dimethylpropyl)tetrazol-5-yl]-3-methyl-phenyl]methanone], the figure is 2 nM; as for `COc1cc(C(=O)N2CCN(c3nc4nc(C)ccc4o3)CC2)ccc1-c1cn(CC(C)(C)C)nn1` [Example 239, (3-methoxy-4-(1-neopentyl-1H-1,2,3-triazol-4-yl)phenyl)(4-(5-methyloxazolo[4,5-b]pyridin-2-yl)piperazin-1-yl)methanone], 13 nM; as for `Cc1ccc2oc(N3CCN(C(=O)c4ccc(-c5nnc(C(C)(C)C)n5C)cc4)CC3)nc2n1` [Example 77, [4-(5-tert-butyl-4-methyl-1,2,4-triazol-3-yl)phenyl]-[4-(5-methyloxazolo[4,5-b]pyridin-2-yl)piperazin-1-yl]methanone], 2320 nM. Regarding `Cc1ccc2oc(N3CCN(C(=O)N4CC(NC(=O)c5ccc(F)cc5Cl)C4)CC3)nc2n1` [Example 254, 2-chloro-4-fluoro-N-[1-[4-(5-methyl-[1,3]oxazolo[4,5-b]pyridin-2-yl)piperazine-1-carbonyl]azetidin-3-yl]benzamide], the IC50 was no less than 12500 nM.

Take `Cc1ccc2oc(N3CCN(C(=O)c4cnc(-n5cc(C(C)(C)C)cn5)c(C)c4)CC3)nc2n1` [Example 130, [6-(4-tert-butylpyrazol-1-yl)-5-methylpyridin-3-yl]-[4-(5-methyl-[1,3]oxazolo[4,5-b]pyridin-2-yl)piperazin-1-yl]methanone]: the IC50 stood at 8 nM. As for `CC(C)(C)n1cnc(-c2ccc(C(=O)N3CCN(c4nc5nc(Cl)ccc5o4)CC3)cc2F)n1` [Example 107, [4-(1-tert-butyl-1,2,4-triazol-3-yl)-3-fluorophenyl]-[4-(5-chloro-[1,3]oxazolo[4,5-b]pyridin-2-yl)piperazin-1-yl]methanone], the figure is 15 nM.

`Cc1cc(C(=O)N2CCN(c3nc4nc(Cl)ccc4o3)CC2)cnc1OCC1(C)CC1(F)F` (stereo not shown) [Example 158, (4-(5-chlorooxazolo[4,5-b]pyridin-2-yl)piperazin-1-yl)(6-((2,2-difluoro-1-methylcyclopropyl)methoxy)-5-methylpyridin-3-yl)methanone] showed an IC50 of 11 nM. Next, `Cc1ccc2oc(N3CCN(C(=O)c4ccc(-c5nnn(CC(C)(C)C)n5)c(F)c4)CC3)nc2n1` [Example 303, [4-[2-(2,2-dimethylpropyl)tetrazol-5-yl]-3-fluoro-phenyl]-[4-(5-methyloxazolo[4,5-b]pyridin-2-yl)piperazin-1-yl]methanone]: 7 nM. Regarding `Cc1cc(C(=O)N2CCN(c3nc4nc(Cl)ccc4o3)CC2)ccc1-c1cn(C(C)(C)C)nn1` [Example 257, (4-(1-(tert-butyl)-1H-1,2,3-triazol-4-yl)-3-methylphenyl)(4-(5-chlorooxazolo[4,5-b]pyridin-2-yl)piperazin-1-yl)methanone], the IC50 came to 58 nM. Against the preceding molecule, the IC50 is about 8.3-fold higher. In the case of `Cc1cc(C(=O)N2CCN(c3nc4nc(Cl)ccc4o3)CC2)cnc1OCCC(F)(F)F` [Example 173, (4-(5-chlorooxazolo[4,5-b]pyridin-2-yl)piperazin-1-yl)(5-methyl-6-(3,3,3-trifluoropropoxy)pyridin-3-yl)methanone], the IC50 came out at 135 nM.

In turn, `Cc1cc(C(=O)N2CCN(c3nc4nc(Cl)ccc4o3)CC2)cnc1-c1cnn(CC(C)(C)C)c1` [Example 247, [4-(5-chloro-[1,3]oxazolo[4,5-b]pyridin-2-yl)piperazin-1-yl]-[6-[1-(2,2-dimethylpropyl)pyrazol-4-yl]-5-methylpyridin-3-yl]methanone] returned an IC50 of 7 nM. As for `Cc1ccc2oc(N3CCN(C(=O)c4ccc(-c5nnn(CC(C)(C)C)n5)c(C)c4)CC3)nc2n1` [Example 301, [4-[2-(2,2-dimethylpropyl)tetrazol-5-yl]-3-methyl-phenyl]-[4-(5-methyloxazolo[4,5-b]pyridin-2-yl)piperazin-1-yl]methanone], the figure is 3 nM.

Source of the values: patent US20220135591A1, “HETEROCYCLIC COMPOUNDS AS INHIBITORS OF MONOACYLGLYCEROL LIPASE (MAGL)” (Hoffmann-La Roche Inc., priority 2019, published 2022).
